Test results: US11254688B2 (Boehringer Ingelheim International GmbH, priority 2018, dated 2022)

Biological target: T1, hGOAT (Homo sapiens, UniProt Q96T53)
T1 construct: expressed in transfected cells; host or cells: HEK293 (Hek293 hGOAT/PPGhrl Clone #1B8)
T1 sequence (Q96T53 1-435): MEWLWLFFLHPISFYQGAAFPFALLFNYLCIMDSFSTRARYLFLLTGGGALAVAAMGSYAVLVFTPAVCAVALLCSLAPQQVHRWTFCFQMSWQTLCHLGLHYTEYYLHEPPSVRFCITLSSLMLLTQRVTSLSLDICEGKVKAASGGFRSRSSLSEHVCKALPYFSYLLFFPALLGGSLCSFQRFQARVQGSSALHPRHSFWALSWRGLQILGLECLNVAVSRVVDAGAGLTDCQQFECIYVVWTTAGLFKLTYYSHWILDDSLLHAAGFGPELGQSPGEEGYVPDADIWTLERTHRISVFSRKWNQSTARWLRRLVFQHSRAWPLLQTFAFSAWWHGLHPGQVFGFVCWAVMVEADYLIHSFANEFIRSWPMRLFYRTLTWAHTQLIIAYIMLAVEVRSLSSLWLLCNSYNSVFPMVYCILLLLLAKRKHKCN
Assay: Determination of hGOAT activity in HEK293 cells after incubation with test compound (acyl-ghrelin ELISA)
Type: cell-based
Conditions: HEK293 cells stably transfected with preproghrelin and human GOAT; octanoate-BSA 100 μM; 5 hours incubation; acyl-ghrelin in medium by ELISA; 8 compound concentrations
Procedure: Determination of hGOAT Activity in HEK293 Cells after Incubation with Test Compound
HEK293 cells stably transfected with two expression vectors, one coding for preproghrelin cDNA and a second for the expression of human GOATcDNA are used as a cellular model. After feeding the cells with octanoic acid for 5 hours, acyl-ghrelin is measured in cell culture medium by an ELISA procedure.
Cellline: Hek293 hGOAT/PPGhrl Clone #1B8Sodium octanoate, Sigma, Cat.-No. C5038
BD Poly-D-Lysin 384-well Plates, black-clear polystyrene BD Bioscience Cat.-No. […] ELISA human acylated Ghrelin Kit purchased from Bertin Pharman (detailed composition of buffers e.g. wash-puffer, ELISA buffer not known)
Cells are plated with a density of 5000 cells/well in 384-well poly-D-lysin plates and incubated for 1 day at 37° C., 5% CO2 in DMEM medium, 10% FCS, 1×NEAA, Puromycin (0.5 μg/ml) and G418 (1 mg/ml). Then the medium is changed to a identical medium without FCS and containing Octanoate-BSA (final concentration 100 μM each) and compound in DMSO (final DMSO concentration 0,3%). After incubation for 5 hours acylghrelin in the medium is measured by ELISA.
The medium sample is diluted 1:25 in Elisa buffer, a 25 μl aliquot is transferred to a 384-well ELISA plate previously washed 4 times with 100 μL wash buffer, and 25 μl tracer-solution is added. After incubation overnight (˜20 h) at 4° C. temperature the plate is washed 4 times with 100 μl wash-buffer per well. Finally 50 μl Ellman's reagent is added to each well and the plate is incubated in the dark for 20 minutes. The absorbance is measured at 405 nm in an Envision multilabel reader and the amount of acylated ghrelin is calculated according to a acylated ghrelin standard curve provided in the same plate.
The analysis of the data is performed by calculation of the percentage of acyl-ghrelin produced in the presence of test compound compared to the amount of acyl-ghrelin produced in the vehicle control samples. An inhibitor of the GOAT enzyme will give values between 100% CTL (no inhibition) and 0% CTL (complete inhibition).
IC50 values are calculated with Assay Explorer or other suited software based on curve fitting of results of 8 different compound concentrations.

IC50 | Compound
0.571 nM | Cc1nc2nonc2c(N)c1Cc1ccc(C(F)(F)F)n2cnnc12 [Compound 4.12, 5-Methyl-6-{[5-(trifluoromethyl)-[1,2,4]triazolo[4,3-a]pyridin-8-yl]methyl}-[1,2,5]oxadiazolo[3,4-b]pyridin-7-amine]
0.89 nM | Cc1nc2nonc2c(N)c1Cc1cccn2c(C3CC3)nnc12 [Compound 4.13, 6-({3-Cyclopropyl-[1,2,4]triazolo[4,3-a]pyridin-8-yl}methyl)-5-methyl-[1,2,5]oxadiazolo[3,4-b]pyridin-7-amine]
0.665 nM | Cc1nc2nonc2c(N)c1Cc1ccc(Cl)n2cnnc12 [Compound 4.14, 6-({5-Chloro-[1,2,4]triazolo[4,3-a]pyridin-8-yl}methyl)-5-methyl-[1,2,5]oxadiazolo[3,4-b]pyridin-7-amine]
0.33 nM | Cc1nc2nonc2c(N)c1Cc1ccc(OC(F)F)n2cnnc12 [Compound 4.15, 6-{[5-(Difluoromethoxy)-[1,2,4]triazolo[4,3-a]pyridin-8-yl]methyl}-5-methyl-[1,2,5]oxadiazolo[3,4-b]pyridin-7-amine]
0.642 nM | Cc1nc2nonc2c(N)c1Cc1ccc(OC(F)F)nc1 [Compound 4.16, 6-{[6-(Difluoromethoxy)pyridin-3-yl]methyl}-5-methyl-[1,2,5]oxadiazolo[3,4-b]pyridin-7-amine]
1.65 nM | Cc1nc2nonc2c(N)c1Cc1ccc(Cl)nc1 [Compound 4.18, 6-[(6-Chloropyridin-3-yl)methyl]-5-methyl-[1,2,5]oxadiazolo[3,4-b]pyridin-7-amine]
0.174 nM | CSc1ccc(Cc2c(C)nc3nonc3c2N)cc1 [Compound 4.19, 5-Methyl-6-{[4-(methylsulfanyl)phenyl]methyl}-[1,2,5]oxadiazolo[3,4-b]pyridin-7-amine]
5.51 nM | Cc1nc2nonc2c(N)c1Cc1ccc2nccn2c1 [Compound 4.20, 6-Imidazo[1,2-a]pyridin-6-ylmethyl-5-methyl-[1,2,5]oxadiazolo[3,4-b]pyridin-7-ylamine]
3.41 nM | Cc1nc2nonc2c(N)c1Cc1ccn2ncnc2c1 [Compound 4.21, 5-Methyl-6-({[1,2,4]triazolo[1,5-a]pyridin-7-yl}methyl)-[1,2,5]oxadiazolo[3,4-b]pyridin-7-amine]
4.81 nM | Cc1ncc(-c2ccc(Cc3c(C)nc4nonc4c3N)cn2)o1 [Compound 4.22, 5-Methyl-6-{[6-(2-methyl-1,3-oxazol-5-yl)pyridin-3-yl]methyl}-[1,2,5]oxadiazolo[3,4-b]pyridin-7-amine]
7.76 nM | COC(=O)c1cn2cc(Cc3c(C)nc4nonc4c3N)ccc2n1 [Compound 4.23, Methyl 6-({7-amino-5-methyl-[1,2,5]oxadiazolo[3,4-b]pyridin-6-yl}methyl)imidazo[1,2-a]pyridine-2-carboxylate]
0.838 nM | Cc1nc2nonc2c(N)c1Cc1ccc(C(C)(C)C#N)nc1 [Compound 4.24, 2-[5-({7-Amino-5-methyl-[1,2,5]oxadiazolo[3,4-b]pyridin-6-yl}methyl)pyridin-2-yl]-2-methylpropanenitrile]
0.081 nM | CCC(C#N)(CC)c1ccc(Cc2c(C)nc3nonc3c2N)cn1 [Compound 4.25, 2-[5-({7-Amino-5-methyl-[1,2,5]oxadiazolo[3,4-b]pyridin-6-yl}methyl)pyridin-2-yl]-2-ethylbutanenitrile]
0.098 nM | Cc1nc2nonc2c(N)c1Cc1ccc(C2(C#N)CCCC2)nc1 [Compound 4.26, 1-[5-({7-Amino-5-methyl-[1,2,5]oxadiazolo[3,4-b]pyridin-6-yl}methyl)pyridin-2-yl]cyclopentane-1-carbonitrile]
1.65 nM | Cc1nc2nonc2c(N)c1Cc1ccc(C2(C#N)CCOCC2)nc1 [Compound 4.27, 4-[5-({7-Amino-5-methyl-[1,2,5]oxadiazolo[3,4-b]pyridin-6-yl}methyl)pyridin-2-yl]oxane-4-carbonitrile]
1.5 nM | Cc1nc2nonc2c(N)c1Cc1ccc(C2(C#N)CC(F)(F)C2)nc1 [Compound 4.28, 1-[5-({7-Amino-5-methyl-[1,2,5]oxadiazolo[3,4-b]Pyridin-6-yl}methyl)pyridin-2-yl]-3,3-difluorocyclobutane-1-carbonitrile]
1.27 nM | Cc1nc2nonc2c(N)c1Cc1ccc(Br)nc1 [Compound 4.29, 6-[(6-Bromopyridin-3-yl)methyl]-5-methyl-[1,2,5]oxadiazolo[3,4-b]pyridin-7-amine]
1.39 nM | Cc1nc2nonc2c(N)c1Cc1ccc(C(F)F)nc1 [Compound 4.30, 6-{[6-(Difluoromethyl)pyridin-3-yl]methyl}-5-methyl-[1,2,5]oxadiazolo[3,4-b]pyridin-7-amine]
0.487 nM | Cc1nc2nonc2c(N)c1Cc1ccc(C#N)c(F)c1 [Compound 4.31, 4-({7-Amino-5-methyl-[1,2,5]oxadiazolo[3,4-b]pyridin-6-yl}methyl)-2-fluorobenzonitrile]
0.064 nM | Cc1nc2nonc2c(N)c1Cc1ccc(SC(F)(F)F)cc1 [Compound 4.32, 5-Methyl-6-({4-[(trifluoromethyl)sulfanyl]phenyl}methyl)-[1,2,5]oxadiazolo[3,4-b]pyridin-7-amine]
0.114 nM | Cc1nc2nonc2c(N)c1Cc1ccc(OC(F)F)cc1 [Compound 4.33, 6-{[4-(Difluoromethoxy)phenyl]methyl}-5-methyl-[1,2,5]oxadiazolo[3,4-b]pyridin-7-amine]
1.4 nM | Cc1nc2nonc2c(N)c1Cc1ccc2nn(C)cc2c1 [Compound 4.34, 5-Methyl-6-[(2-methyl-2H-indazol-5-yl)methyl]-[1,2,5]oxadiazolo[3,4-b]pyridin-7-amine]
0.111 nM | Cc1nc2nonc2c(N)c1Cc1ccc(C#N)c(OC(F)F)c1 [Compound 4.35, 4-({7-Amino-5-methyl-[1,2,5]oxadiazolo[3,4-b]pyridin-6-yl}methyl)-2-(difluoromethoxy)benzonitrile]
5.8 nM | Cc1nc2nonc2c(N)c1Cc1cccc(C#N)c1 [Compound 4.36, 3-(7-Amino-5-methyl-[1,2,5]oxadiazolo[3,4-b]pyridin-6-ylmethyl)-benzonitrile]
0.534 nM | Cc1nc2nonc2c(N)c1Cc1cc(I)ncc1C(F)(F)F [Compound 4.37, 6-{[2-Iodo-5-(trifluoromethyl)pyridin-4-yl]methyl}-5-methyl-[1,2,5]oxadiazolo[3,4-b]pyridin-7-amine]
0.268 nM | Cc1nc2nonc2c(N)c1Cc1cccc(C(F)(F)F)c1 [Compound 4.38, 5-Methyl-6-{[3-(trifluoromethyl)phenyl]methyl}-[1,2,5]oxadiazolo[3,4-b]pyridin-7-amine]
9.39 nM | Cc1nc2nonc2c(N)c1Cc1ccnc(C#N)c1 [Compound 4.39, 4-({7-Amino-5-methyl-[1,2,5]oxadiazolo[3,4-b]pyridin-6-yl}methyl)pyridine-2-carbonitrile]
2.21 nM | Cc1nc2nonc2c(N)c1Cc1ccnc(C(F)(F)F)c1 [Compound 4.40, 5-Methyl-6-{[2-(trifluoromethyl)pyridin-4-yl]methyl}-[1,2,5]oxadiazolo[3,4-b]pyridin-7-amine]
0.428 nM | Cc1nc2nonc2c(N)c1Cc1cccc(OC(F)(F)F)c1 [Compound 4.41, 5-Methyl-6-{[3-(trifluoromethoxy)phenyl]methyl}-[1,2,5]oxadiazolo[3,4-b]pyridin-7-amine]
0.377 nM | Cc1nc2nonc2c(N)c1Cc1cccc(S(=O)(=O)C(F)(F)F)c1 [Compound 4.42, 5-Methyl-6-[(3-trifluoromethanesulfonylphenyl)methyl]-[1,2,5]oxadiazolo[3,4-b]pyridin-7-amine]

Compound | IC50
Cc1nc2nonc2c(N)c1Cc1ccc(OC2CCC2)nc1 [Compound 4.17, 6-[(6-Cyclobutoxypyridin-3-yl)methyl]-5-methyl-[1,2,5]oxadiazolo[3,4-b]pyridin-7-amine] | 0.371 nM
